Assays:
[1] = system: IL-8 release; test: IL-8 release after thapsigargin preincubation and ozone; assay type: cell-based, human; conditions: primary airway epithelial cells
Description: Primary airway epithelial cells were cultured on collagen coated 6-well plates. Cells were preincubated with 2 μM thapsigargin for 30 min and then exposed to 200 ppb ozone for 18 h. The supernatant media was collected and analyzed for cytokines as described before. Values are means±SE; n=6 and the data is a representative of 2 individual experiments; * Significant difference from 0 ppb control, P<0.05 and # Significant difference from ozone exposed untreated cells, P<0.05.

[2] = system: IL-8 and GM-CSF release; test: Ozone-mediated cytokine release with extracellular nucleotide supplementation; assay type: cell-based, human
Description: Ozone-mediated cytokine release was studied in polarized air-liquid interface cultures of non-CF and CF cell lines. 16HBEo- and CF4lo- cells were cultured on collagen coated 30 mm inserts. Once cells were polarized (8-10 days in culture) cells were exposed to 0, 100 or 200 ppb ozone with 200 μl media on the apical surface. At the end of exposure (18 h) additional 200 μl media was added to the apical surface. Aliquots were collected after 4 h and analyzed for the cytokine as described before. […] Apical media was collected and analyzed for IL-8 and GM-CSF.

[3] = system: SERCA2 protein; test: SERCA2 protein expression by Western blot after CFTRinh172 treatment; assay type: cell-based, human; conditions: 20 μM, 24 h
[4] = system: primary human bronchial epithelial (HBE), C-38 and IB3-1 cells; test: Cytotoxicity of 24 h CFTRinh172 incubation; assay type: cell-based; conditions: 20 μM
[5] = system: Primary human bronchial epithelial cells; test: Ozone-mediated extracellular ATP release with CFTRinh172; assay type: cell-based; conditions: 20 μM for 30 min, then 200 ppb ozone 30 min
Description: (§1) Exposure of airway epithelial cells to ozone at precise levels was carried out in a computer controlled in vitro exposure chamber as described previously (78). Primary human bronchial epithelial cells cultured on collagen-coated 6-well plates were treated with 20 μM CFTRinh172 for 30 min and then exposed to either 0 ppb (−) or 200 ppb (+) ozone. ATP content of the extracellular media was analyzed after 30 min and cell death was estimated after 8 h of ozone exposure as described in the Methods. The data shown is a representative of 3 experiments (n=6). The bars represent means (SEM) of data and * indicates significant difference (p<0.05) from 0 ppb (− ozone) controls and # indicates significant difference (p<0.05) from 200 ppb exposed cells without CFTRinh172.

[6] = system: Primary human bronchial epithelial cells; test: Cell death after ozone exposure with CFTRinh172; assay type: cell-based; conditions: 20 μM
Description: For assessing ozone toxicity, primary human airway epithelial cells were transfected either with a control or SERCA2 siRNA for 24 h and exposed to 0 ppb or 200 ppb ozone for 18 h. Following exposure, cells were analyzed for cell death using Vybrant apoptosis assay kit (Molecular Probes, Eugene, Oreg.), as described before (63). In this method, apoptotic cells bearing phosphatidylserine in the plasma membrane outer leaflet were identified as those binding Alexa Fluor 488-labeled annexin V and necrotic cells as those binding fluorescent DNA-binding dye SYTOX Green. The Alexa Fluor-488 labeled annexin-positive apoptotic and Sytox green-positive dead cells were quantified by flow cytometry. The columns represent means of data and * indicates significant difference (p<0.05) from 0 ppb controls cells. # indicates significant difference from 200 ppb controls (n=3). This experiment was repeated 4 times.
as §1, with “The data shown is a representative of 3 experiments (n=6). The bars represent means (SEM) of data and * indicates significant difference (p<0.05) from 0 ppb (− ozone) controls and # indicates significant difference (p<0.05) from 200 ppb exposed cells without CFTRinh172.” left out

[7] = system: IL-8 release; test: Ozone-mediated IL-8 release with NF-κB inhibitor preincubation; assay type: cell-based, human; conditions: CF cells; 10 μM preincubation 30 min; ozone 18 h
Description: Ozone-mediated cytokine release was studied in polarized air-liquid interface cultures of non-CF and CF cell lines. 16HBEo- and CF4lo- cells were cultured on collagen coated 30 mm inserts. Once cells were polarized (8-10 days in culture) cells were exposed to 0, 100 or 200 ppb ozone with 200 μl media on the apical surface. At the end of exposure (18 h) additional 200 μl media was added to the apical surface. Aliquots were collected after 4 h and analyzed for the cytokine as described before.
Results are shown in FIG. 18; IL-8 (18A), G-CSF (18B) or GM-CSF (18C). Values are means±SE; n=6, and the figure is a representative of 4 individual experiments; * Significant difference from 0 ppb control, P<0.05 and # Significant difference from non-CF, P<0.05. Effect of preincubation of cells for 30 min with 10 μM [6-amino-4-(4-phenoxyphenylethylamino)quinazoline] For analysis of NF-κB activation, nuclear p65 was measured in non-CF and CF cells after exposure to ozone (E). As described above, cells were harvested and nuclear lysates were prepared after exposure to 200 ppb ozone. The cellular fractions were assessed for p65. Values are means±SE; n=6 and the data is a representative of 2 individual experiments; * Significant difference from 0 ppb control, P<0.05 and # Significant difference from non-CF, P<0.05.

[8] = CF45o- cells, 10 μM preincubation 30 min, ozone 200 ppb, 18 h

SMILES: C/C=C(/C)C(=O)O[C@H]1C(C)=C2[C@H]([C@@H]1OC(=O)CCCCCCC)[C@@](C)(OC(C)=O)C[C@H](OC(=O)CCC)[C@@]1(O)[C@H]2OC(=O)[C@@]1(C)O [Thapsigargin, thapsigargin]
- ozone mediated IL-8 release ([1]; 2 μM for 30 min, then 200 ppb ozone 18 h): further augmented
- IL-8 release ([1]; 2 μM, control, 0 ppb exposed cells): enhanced

SMILES: Nc1ncnc2c1ncn2[C@@H]1O[C@H](COP(=O)(O)OP(=O)(O)OP(=O)(O)O)[C@@H](O)[C@H]1O [ATP]
- GM-CSF release [2, 8]: enhanced
- IL-8 release [2, 8]: enhanced

SMILES: O=C(O)c1ccc(/C=C2\SC(=S)N(c3cccc(C(F)(F)F)c3)C2=O)cc1 [CFTRinh172]
- SERCA2 expression ([3]; parent CF cell line IB3-1): did not cause a further decrease
- SERCA2 protein levels ([3]; primary human bronchial epithelial (HBE) cells, air-liquid interface): significant decrease
- SERCA2 protein levels ([3]; wt-CFTR-corrected C-38 cells): significant decrease
- cytotoxicity [4]: did not cause cytotoxicity
- Ozone-mediated release of ATP [5]: completely abolished
- cytotoxicity of inhibitor itself ([6]; 0 ppb ozone): negligible cytotoxicity
- cell death in ozone ([6]; 200 ppb ozone 8 h): further enhanced the cell death

SMILES: O=c1ccn([C@@H]2O[C@H](COP(=O)(O)OP(=O)(O)OP(=O)(O)O)[C@@H](O)[C@H]2O)c(=O)[nH]1 [UTP]
- ozone-mediated cytokine release ([2]; CF cells, data not shown): enhanced

SMILES: Nc1ccc2ncnc(NCCc3ccc(Oc4ccccc4)cc3)c2c1 [NF-kB inhibitor, 6-amino-4-(4-phenoxyphenylethylamino)quinazoline]
- IL-8 levels in ozone [7]: drop to control values
